Where “and” joins values, the source holds several entries; their conditions need not be identical. Equal entries are not always repeated.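 Values below derive from 48-hour exposures of cells grown in 96-well plates, with endpoints linearly interpolated between the two concentrations bracketing the appropriate inhibition level. GI50: concentration for 50% inhibition of growth. TGI marks complete inhibition of growth.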
Legend:
Test in all cases: inhibition of tumour cell growth, NCI panel, 48 h
UACC-257 melanoma = tested on: UACC-257 melanoma
SF-539 CNS = tested on: SF-539 CNS
UACC-62 melanoma = tested on: UACC-62 melanoma
NCI-H23 lung = tested on: NCI-H23 lung
HS 578T breast = tested on: HS 578T breast
COLO 205 colon = tested on: COLO 205 colon
MALME-3M melanoma = tested on: MALME-3M melanoma
SNB-19 CNS = tested on: SNB-19 CNS
OVCAR-8 ovarian = tested on: OVCAR-8 ovarian
MDA-MB-231 breast = tested on: MDA-MB-231 breast

SMILES | GI50 (UACC-257 melanoma) | TGI (UACC-257 melanoma) | GI50 (SF-539 CNS) [µM] | TGI (SF-539 CNS) | GI50 (UACC-62 melanoma) [µM] | TGI (UACC-62 melanoma) | GI50 (NCI-H23 lung) | TGI (NCI-H23 lung) | GI50 (HS 578T breast) | TGI (HS 578T breast) [µM] | GI50 (COLO 205 colon) | TGI (COLO 205 colon) | GI50 (MALME-3M melanoma) | TGI (MALME-3M melanoma) | GI50 (SNB-19 CNS) | TGI (SNB-19 CNS) | GI50 (OVCAR-8 ovarian) [µM] | TGI (OVCAR-8 ovarian) | GI50 (MDA-MB-231 breast) | TGI (MDA-MB-231 breast)
CC(C)(C)NC(=O)[C@H]1C[C@H]2CCCC[C@H]2CN1C[C@@H](O)[C@H](Cc1ccccc1)NC(=O)[C@H](CC(N)=O)NC(=O)c1ccc2ccccc2n1 | 13.4 µM | 28.2 µM | 2.93 | 23.9 µM | 13.6 | 27.7 µM | 16 µM | 33.2 µM | 16.4 µM | 60.2 | 10.5 µM | 29.8 µM | 17.7 µM | 37.8 µM | 7.97 µM | 23 µM | 23 | 62.4 µM | 13 µM | 26.7 µM
C[C@]12CC[C@@H]3c4ccc(O)cc4C(O)C[C@H]3[C@@H]1CCC2=O (stereo not given in full) | > 100 µM | > 100 µM | > 100 | > 100 µM | > 100 | > 100 µM | > 100 µM | > 100 µM | > 100 µM | > 100 | > 100 µM | > 100 µM | > 100 µM | > 100 µM | > 100 µM | > 100 µM | > 100 | > 100 µM | > 100 µM | > 100 µM
Cc1cc(=O)oc2cc(O)c(CN(C)CC(=O)O)cc12 | – | > 100 µM | – | > 100 µM | – | > 100 µM | – | > 100 µM | – | > 100 | – | > 100 µM | – | > 100 µM | – | > 100 µM | – | > 100 µM | – | > 100 µM
O=C(O)CSc1ncccc1[N+](=O)[O-] | – | > 100 µM | – | > 100 µM | – | > 100 µM | – | > 100 µM | – | > 100 | – | > 100 µM | – | > 100 µM | – | > 100 µM | – | > 100 µM | – | > 100 µM
CSc1ccc(/C=C2\C=C(CC(=O)NCc3ccc(C(=O)c4ccccc4)cc3)c3cc(F)ccc32)cc1 | 0.572 µM | > 100 µM | 0.0381 | 1.17 µM | 0.0591 | 10.7 µM | 0.036 µM | 2.89 µM | 0.0457 µM | 13 | 0.19 µM | 0.431 µM | 0.215 µM | 44.7 µM | 0.0705 µM | > 100 µM | 0.0497 | 8.12 µM | 0.0643 µM | 5.3 µM
CCN(CC)CCNc1n[n+]([O-])c2ccccc2[n+]1[O-] | 8.39 µM and 3.54 µM | 18.3 µM and 20.4 µM | – | 25.7 µM and 42.9 µM | – | 22.2 µM and 21.2 µM | 4.31 µM and 9.76 µM | 19 µM and 33.7 µM | – | 97.5 | – | 19.9 µM and 26 µM | – | 20.7 µM and 20.8 µM | – | > 72.1 µM and 56 µM | – | 31.1 µM and 27 µM | 6.08 µM and 2.83 µM | 27.3 µM and 20.7 µM
COc1ccc(C2CC(n3nnnc3-c3ccccc3)=NN2)cc1 (stereo not given) | 2.76 µM | 12.6 µM | 2.34 | 5.87 µM | 0.465 | 12.5 µM | 10.8 µM | 41.7 µM | 19.7 µM | 70.3 | 3.5 µM | 11.7 µM | 2.66 µM | 20.3 µM | 18.1 µM | > 100 µM | 4.07 | 61.7 µM | 0.564 µM | 12.8 µM
COc1cc2nc(-c3ccc(C(F)(F)F)cc3)cc(OCCCN3CCCCC3)c2cc1OC | 1.7 µM | 5.27 µM | 2.08 | 8.32 µM | 1.82 | 6.29 µM | 1.91 µM | 11.1 µM | 2.15 µM | 9.94 | 0.406 µM | 1.94 µM | 1.26 µM | 4.03 µM | 2.82 µM | 14.6 µM | 0.734 | 20.4 µM | 0.536 µM | 4.04 µM
CCC(c1cccc(O)c1)C(CC)c1cccc(O)c1 (stereo not given) | 11.5 µM | 26.4 µM | 1.23 | 4.72 µM | 3.67 | 16 µM | 4.08 µM | 16.6 µM | 1.96 µM | 9.77 | 2.05 µM | 5.41 µM | 2.1 µM | 20 µM | 13.2 µM | 26 µM | 12.8 | 35.2 µM | 6.21 µM | 19.6 µM
Cc1cc(-c2nnc3n2CCCCC3)c(C)n1-c1ccc(Cl)c(Cl)c1 | 12.7 µM | 32.3 µM | 16.6 | 32.4 µM | 4.03 | 17 µM | 12.3 µM | 35.2 µM | 16.9 µM | 47 | 10.6 µM | 25.1 µM | 13.8 µM | 30.4 µM | 15.5 µM | 47.1 µM | 15.4 | 64.1 µM | 15.2 µM | 33.5 µM
OCC1OC(n2cnc3c(/C=C(/O)c4ccccc4)ncnc32)C(O)C1O (stereo not given) | – | > 62.9 µM | – | > 100 µM | – | > 100 µM | – | > 100 µM | – | > 100 | – | 2.7 µM | – | > 100 µM | – | > 100 µM | – | > 100 µM | – | > 30 µM
FCc1ncc(-c2ccc(C(F)(F)F)cc2)c(NC2CCCCCC2)n1 | > 10 µM | > 10 µM | > 10 | > 10 µM | > 10 | > 10 µM | > 10 µM | > 10 µM | > 10 µM | > 10 | > 10 µM | > 10 µM | > 10 µM | > 10 µM | > 10 µM | > 10 µM | > 10 | > 10 µM | > 10 µM | > 10 µM
COC(=O)CCC1=C(C)/C(=C/c2[nH]c(-c3ccc[nH]3)cc2OC)N=C1C | 0.871 µM | 3.97 µM | 1.21 | 5.32 µM | 0.295 | 0.894 µM | 0.587 µM | 3.84 µM | 1.04 µM | 9.01 | 0.618 µM | 1.72 µM | 1.14 µM | 3.27 µM | 2.02 µM | 17.5 µM | 0.39 | 6.69 µM | 0.223 µM | 1.35 µM
CCN(CCNc1ccc(C)c2sc3ccccc3c(=O)c12)CC(C)(C)O | 2.15 µM | 5.43 µM | 12.1 | 25.2 µM | 2.9 | 9.48 µM | 15.4 µM | 41.8 µM | 11.5 µM | 29.2 | 3 µM | 13.2 µM | 17.8 µM | 54.6 µM | 11.9 µM | 25.9 µM | 17.8 | > 71.6 µM | 6.88 µM | 23.7 µM
c1nnc(NCNc2nncs2)s1 | – | > 100 µM | – | > 100 µM | – | > 100 µM | – | > 100 µM | – | > 100 | – | > 100 µM | – | > 100 µM | – | > 100 µM | – | > 100 µM | – | > 100 µM
O=C1c2ccccc2-n2c1nc1ccccc1c2=O | – | 9.65 µM | – | 43.3 µM | – | 14.5 µM | – | 33.8 µM | – | 45.2 | – | 27.8 µM | – | 29 µM | – | > 91.2 µM | – | > 82.4 µM | – | > 100 µM
Cc1ccc(S(=O)(=O)N=Nc2c(O)[nH]c3c(Cl)cc(Cl)cc23)cc1 | – | > 100 µM | – | > 100 µM | – | > 100 µM | – | > 100 µM | – | > 100 | – | > 100 µM | – | > 100 µM | – | > 100 µM | – | > 100 µM | – | > 100 µM
CCN(CC)CCCC(C)Nc1c2ccc(C)cc2nc2ccc(OC)cc12 (stereo not given) | 1.62 µM | 3.05 µM | 1.71 | 3.98 µM | 10.5 | 27.9 µM | 1.84 µM | 5.86 µM | 3.26 µM | 17.2 | 1.21 µM | 2.96 µM | 1.73 µM | 3.53 µM | 4.78 µM | 35.7 µM | 0.521 | 3.53 µM | 1.61 µM | 5.41 µM
O=C1CCCN1CC#CCN1CCCC1 | > 100 µM | > 100 µM | > 100 | > 100 µM | > 100 | > 100 µM | > 100 µM | > 100 µM | > 100 µM | > 100 | > 100 µM | > 100 µM | > 100 µM | > 100 µM | > 100 µM | > 100 µM | > 100 | > 100 µM | > 100 µM | > 100 µM
CNC(=S)N/N=C/c1ccc([N+](=O)[O-])s1 | – | > 10 µM | – | > 10 µM | – | > 10 µM | – | > 10 µM | – | > 10 | – | 8.55 µM | – | > 10 µM | – | > 10 µM | – | > 10 µM | – | > 10 µM
CCCCCCN(CCCCCC)CC(O)c1ccc2c3c(cccc13)CC2 (stereo not given) | 6.97 µM | 22.6 µM | 3.83 | 15.2 µM | 4.4 | 17.5 µM | 3.7 µM | 18.1 µM | 10.8 µM | 27.2 | 5.56 µM | 19.8 µM | 14.1 µM | 32.1 µM | 11.8 µM | 26.6 µM | 13.1 | 29.4 µM | 6.86 µM | 21.3 µM
COc1cc(S(C)(=O)=O)ccc1Nc1nc2ccc(-c3ccc(NC(=O)[C@H](C)c4ccc(F)cc4)cc3)cn2n1 | > 100 µM | > 100 µM | > 39.8 | > 100 µM | 75.6 | > 100 µM | > 100 µM | > 100 µM | > 63.4 µM | > 100 | 0.0838 µM | > 100 µM | > 100 µM | > 100 µM | > 100 µM | > 100 µM | 9.36 | > 100 µM | 26.6 µM | > 100 µM
COc1ccc(-c2cn[nH]c2-c2cc(OC)c3c(c2)OCCO3)cc1 | 14.8 µM | 55.4 µM | 0.124 | 0.441 µM | 0.0758 | 17.6 µM | 0.599 µM | > 100 µM | 0.231 µM | 34.4 | 0.0591 µM | 0.585 µM | 20.9 µM | 58.7 µM | 0.33 µM | > 100 µM | 0.363 | 21 µM | 0.179 µM | 10.9 µM
CC[C@@]1(O)C(=O)OCc2c1cc1n(c2=O)Cc2cc3cc(N)ccc3nc2-1 | 0.0441 µM and 0.0423 µM | 0.642 µM and 0.375 µM | – | 0.0398 µM | 0.00212 | 0.0393 µM and < 0.021 µM | – | 0.0773 µM and 0.0247 µM | 0.532 µM and 2.41 µM | – | 0.0618 µM and 0.102 µM | 2.86 µM and 1.26 µM | 0.101 µM and 0.037 µM | 1.21 µM and 0.478 µM | 0.0169 µM and < 0.0119 µM | 4.11 µM and > 29.4 µM | 0.0218 | 0.412 µM and 0.198 µM | 0.199 µM and 0.345 µM | 3.11 µM
COc1ccc(Cl)cc1Nc1nc(C(F)(F)F)ccc1C(=O)N/N=C/c1cc(OC)c(OC)c(OC)c1 | 1.65 µM | 3.96 µM | 1.51 | 3.2 µM | 2.09 | 3.74 µM | 5.35 µM | 40.6 µM | 1.94 µM | 4.67 | 2.62 µM | 8.33 µM | 1.07 µM | 4.05 µM | 2.44 µM | 19.5 µM | 1.59 | 4.89 µM | 2.21 µM | 8.66 µM

From PubChem BioAssay (NCI)
